According to patent publication US7868022B2, “2-amino-quinoline derivatives useful as inhibitors of β-secretase (BACE)” (Janssen Pharmaceutica NV, priority 2006, dated 2011):

Key:
Format in all cases: biochemical
human BACE-1 = human BACE-1 (Homo sapiens, UniProt P56817); test: In Vitro BACE Assay run by CEREP (Example 19); settings: recombinant enzyme; for inhibition at 10 µM: pH 4.5, 10.0 μM compound; for IC50: pH 4.5; for inhibition at 1 µM: pH 4.5, 1.0 μM compound
Description: This assay was run by CEREP (Catalog Ref. 761-B, Referred to SOP No. 1C131; ERMOLIEFF, J., LOY, J. A., KOELSCH, G. and TANG, J., Proteolytic activation of recombinant pro-memapsin 2 (pro-BACE) studied with new fluorogenic substrates, Biochemistry, (2000) Vol. 39, p. 12450).
More specifically the assay, run at 50 μL in a 96 well plate, evaluated the effect of test compound on the activity of the human BACE-1 quantified by measuring the formation of Mca-S-E-V—N-L-NH2 from Mca-S-E-V—N-L-D-A-E-F—R—K(Dnp)-R—R—NH2, using a recombinant enzyme.
The test compound, reference compound or water (control) was added to a buffer containing 0.09 M sodium acetate (pH 4.5) and 0.25 μg BACE-1. Compound interference with the fluorimetric detection method due to autofluorescence was then checked by measurements at the wavelengths defined to evaluate the enzyme activity. Thereafter, the reaction was initiated by adding 7.5 μM of the substrate Mca-S-E-V—N-L-D-A-E-F—R—K(Dnp)-R—R—NH2 and the mixture was incubated for 60 min at 37° C. For control basal measurement, the substrate was omitted from the reaction mixture. Immediately after the incubation, the fluorescence intensity emitted by the reaction product Mca-S-E-V—N-L-NH2 was measured at λex=320 nm and λem=405 nm using a microplate reader (Ultra, Tecan). The standard inhibitory reference compound was OM99-2, which was tested in each experiment at several concentrations to obtain an inhibition curve from which its IC50 value was calculated.

β-secretase (BACE) [1] = molecular target: T1, β-secretase (BACE) (Homo sapiens, UniProt P56817); test: In Vitro BACE FS1 % Inhibition Assay (Example 15); settings: FS1 substrate
T1 construct: purchased Panvera
Description: (§1) The following reagents were used in this assay: sodium acetate, PEG8000 (Sigma), DMSO, HEPES, FS1 substrate [R(AedensE)[…]-(DabcylK)R], β-secretase (BACE) (Panvera), and 96-well plate (HE microplate, Molecular Devices).
(§2) The following assay buffers were prepared and used in this assay: (1) enzyme assay buffer (0.05 M sodium acetate, pH5, 0.1% PEG8000 (w/v)), (2) substrate assay buffer (0.05 M sodium acetate, pH5), and (3) compound vehicle (30% DMSO in 50 mM HEPES, pH 7.4).
(§3) The FS1-substrate stock solution was prepared in DMSO as a 10 mg/mL solution. The FS1-substrate working solution was prepared by diluting the 10 mg/mL stock solution with substrate assay buffer to a final concentration of 300 μg/mL. The β-secretase (BACE) working solution was prepared by diluting a 0.83 mg/mL BACE stock solution with enzyme assay buffer to a final concentration of 4 μg/mL.
Test compounds were dissolved in DMSO to 10 mM. Compounds were further diluted in vehicle to various concentrations in the range of 405 μM to 4.05 μM (13.5× final compound concentration in screening plate).
The screening procedure for this assay was as follows: 15 μL of BACE working solution was pipetted into each well of a 96-well plate. To each well was then pipetted 2 μL of test compound at the selected concentration. Test compound and BACE were then mixed with a pipettor and incubated for 20 min at room temperature. To each well was then added 10 μL of the FS1 substrate working solution. The plates were then incubated for 1 hour at room temperature. The fluorescence for each well was then measured on an LJL analyst (Ex 360 nm/Em 530 nm).
The procedure for the blank (negative control) was as follows. 15 μL of assay buffer was pipetted into each well to be used as a blank control. To each well was then added 2 μL of vehicle and 10 μL of FS1-substrate working solution. The plates were then incubated for 1 hour at room temperature. The fluorescence was measured on an LJL analyst (Ex 360 nm/Em 530 nm).
The procedure for the positive control was as follows: 15 μL of BACE working solution was pipetted into each well to be used as a positive control. To each well was then pipetted 2 μL of vehicle. Vehicle and BACE were then mixed with a pipettor and incubated for 20 min at room temperature. To each well was then added 10 μL of the FS1 substrate working solution. The plates were then incubated for 1 hour at room temperature. The fluorescence (Fl) was then measured on an LJL analyst (Ex 360 nm/Em 530 nm).
For test compounds, % inhibition was determined at each concentration as follows:
% Inhibition values of less than 30% were indistinguishable from control and are listed as ≦30% in the Table below. % Inhibition values greater than 100% were indistinguishable from 100% within the error of the measurement.

β-secretase (BACE) [2] = molecular target: T1, β-secretase (BACE); test: In Vitro BACE Assay, Ki (Example 16); settings: FS1 substrate, pH5
Description: as §1, §2, §3
Test compounds were dissolved in DMSO at 10 mM.
The procedure for this assay was as follows: 15 μL of BACE working solution was pipetted into each well of a 96-well plate. To each well was then pipetted 2 μL of test compound at the selected concentration. Test compound and BACE were then mixed with a pipettor and incubated for 20 min at room temperature. […] The fluorescence for each well was then measured on a Polarstar fluorometer (Ex 390 nm/Em 520 nm) for 20 min at room temperature, reading fluorescence at 1 min intervals.
The procedure for the positive control was as follows: 15 μL of BACE working solution was pipetted into each well to be used as a positive control. […] The fluorescence was then measured on a Polarstar fluorometer (Ex 390 nm/Em 520 nm) for 20 min at room temperature, reading fluorescence at 1 min intervals.
For test compounds, Ki inhibition was determined as follows: For each compound concentration and positive control, rate of cleavage of substrate (Vi, where i=compound concentration in μM) was determined as Δ Fluorescence/Δ time (min). […] The Ki was then determined by fitting the following equation to the graph of [I] vs Vi Y=aVmax/(50+24*(1+X/Ki)),

Sequence of human BACE-1 (P56817 46-501): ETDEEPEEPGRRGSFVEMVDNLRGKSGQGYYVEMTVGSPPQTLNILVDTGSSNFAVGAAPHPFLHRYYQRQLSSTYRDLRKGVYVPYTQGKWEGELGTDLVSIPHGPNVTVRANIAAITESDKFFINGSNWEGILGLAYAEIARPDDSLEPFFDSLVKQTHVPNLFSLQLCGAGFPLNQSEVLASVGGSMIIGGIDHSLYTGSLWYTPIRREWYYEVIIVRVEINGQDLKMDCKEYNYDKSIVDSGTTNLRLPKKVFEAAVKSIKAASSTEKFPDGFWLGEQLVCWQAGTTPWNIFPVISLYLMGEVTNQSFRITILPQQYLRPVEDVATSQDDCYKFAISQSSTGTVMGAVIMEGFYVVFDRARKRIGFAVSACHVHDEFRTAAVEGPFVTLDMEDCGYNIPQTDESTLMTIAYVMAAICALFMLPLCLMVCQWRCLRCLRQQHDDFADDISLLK
T1 sequence (P56817 46-501): as above

| Compound | inhibition at 10 µM (human BACE-1) | IC50 (human BACE-1) | inhibition at 1 µM (human BACE-1) | other results |
| --- | --- | --- | --- | --- |
| Nc1nc2ccc(Oc3ccccc3)cc2cc1C(CCCC(=O)N(CCN1CCOCC1)C1CCCCC1)C1CCOCC1 (stereo not shown) [compound 90] | 94% | 1700 nM |  |  |
| Cn1ccnc1CN(CCCC(c1cc2cc(Oc3ccccc3)ccc2nc1N)C1CCOCC1)CCC(C)(C)C (stereo not shown) [Example 11, 3-[4-[(3,3-dimethyl-butyl)-(1-methyl-1H-imidazol-2-ylmethyl)-amino]-1-(tetrahydro-pyran-4-yl)-butyl]-6-phenoxy-quinolin-2-ylamine] |  |  |  | % Inhibition @ 0.3 μM (β-secretase (BACE) [1]; 0.3 μM compound): −6%; % Inhibition @ 1 μM (β-secretase (BACE) [1]; 1 μM compound): 5%; % Inhibition @ 3 μM (β-secretase (BACE) [1]; 3 μM compound): 81% |
| CC(C)(C)n1cc(CC(c2cc3cc(Oc4ccccc4)ccc3nc2N)C2CCOCC2)nn1 (stereo not shown) [compound 150] |  | 3300 nM | 12% |  |
| Nc1nc2ccc(Oc3ccccc3)cc2cc1C(CCC(=O)NC1C2CC3CC(C2)CC1C3)C1CCCCC1 (stereo not shown) [compound 15] |  |  |  | inhibition at 0.3 µM (β-secretase (BACE) [1]; 0.3 μM compound): 43%; inhibition at 1 µM (β-secretase (BACE) [1]; 1 μM compound): 58%; inhibition at 3 µM (β-secretase (BACE) [1]; 3 μM compound): 78%; Ki (β-secretase (BACE) [2]): 280 nM |
| Nc1nc2ccc(Oc3ccccc3)cc2cc1C(CCCC(=O)N(CCN1CCCC1)C1CCCCC1)C1CCOCC1 (stereo not shown) [compound 91] | 86% | 1100 nM |  |  |
| CCOC(=O)C(COCc1ccccc1)NCCCC(c1cc2cc(Oc3ccccc3)ccc2nc1N)C1CCOCC1 (stereo not shown) [compound 89] | 85% | 690 nM |  |  |
| Nc1nc2ccc(Oc3ccccc3)cc2cc1C(CCC(=O)N(CCO)C1CCCCC1)C1CCOCC1 (stereo not shown) [compound 50] |  | 740 nM | 87% |  |
| Nc1nc2ccc(Oc3ccccc3)cc2cc1C(CCC(=O)NC1C2CC3CC(C2)CC1C3)C1CCOCC1 (stereo not shown) [compound 24] |  |  |  | inhibition at 0.3 µM (β-secretase (BACE) [1]; 0.3 μM compound): 56%; inhibition at 1 µM (β-secretase (BACE) [1]; 1 μM compound): 103%; inhibition at 3 µM (β-secretase (BACE) [1]; 3 μM compound): 132%; Ki (β-secretase (BACE) [2]): 66 nM |
| Cn1ccnc1CN(CCCC(c1cc2cc(Oc3ccccc3)ccc2nc1N)C1CCOCC1)C1CCCCC1 (stereo not shown) [compound 94] | 95% | 82 nM |  |  |
| COc1cc2nc(N)c(C(CCCN(CCN3CCOCC3)C3CCCCC3)C3CCOCC3)cc2cc1Oc1ccccc1 (stereo not shown) [compound 108] | 95% | 360 nM |  |  |
| Nc1nc2ccc(Oc3ccccc3)cc2cc1[C@@H](CCC(=O)NCC1CC1)C1CCOCC1 [compound 78] |  | 340 nM | 75% |  |
| CN(C(=O)CCCC(c1cc2cc(Oc3ccccc3)ccc2nc1N)C1CCCCC1)C1CCCCC1 (stereo not shown) [compound 40] |  | 650 nM | 54% | inhibition at 0.3 µM (human BACE-1; pH 4.5, 0.3 μM compound): 13% |
| Cn1ccnc1CN(CCC(C)(C)C)C(=O)CCCC(c1cc2cc(Oc3ccccc3)ccc2nc1N)C1CCOCC1 (stereo not shown) [compound 87] | 99% | 260 nM |  |  |
| Nc1nc2ccc(Oc3ccccc3)cc2cc1C(Cc1cn(C23CC4CC(CC(C4)C2)C3)nn1)C1CCOCC1 (stereo not shown) [compound 153] |  | 670 nM | 46% |  |
| CC(C)(C)CCN(CCCC(c1cc2cc(Oc3ccccc3)ccc2nc1N)C1CCOCC1)CCN1CCCC1 (stereo not shown) [compound 93] | 95% | 86 nM |  |  |
| CC(C)(C)CCNC(=O)CCC[C@H](c1cc2cc(Oc3ccccc3)ccc2nc1N)C1CCOCC1 [compound 82] |  | 210 nM | 85% |  |

| Compound | inhibition at 10 µM (human BACE-1) | IC50 (human BACE-1) | inhibition at 1 µM (human BACE-1) | other results |
| --- | --- | --- | --- | --- |
| CC(C)(C)c1cc(CCC(c2cc3cc(Oc4ccccc4)ccc3nc2N)C2CCOCC2)on1 (stereo not shown) [compound 156] |  | 310 nM | 85% |  |
| CC(C)(C)Cc1cc(CC(c2cc3cc(Oc4ccccc4)ccc3nc2N)C2CCOCC2)on1 (stereo not shown) [compound 151] |  | 310 nM | 90% |  |
| COc1cc2nc(N)c(C(CCC(=O)N(C)C3CCCCC3)C3CCOCC3)cc2cc1Oc1ccccc1 (stereo not shown) [compound 101] | 85% | 290 nM |  |  |
| COc1cc2nc(N)c(C(CCC(=O)NCCC(C)(C)C)C3CCOCC3)cc2cc1Oc1ccccc1 (stereo not shown) [compound 100] | 72% | 370 nM |  |  |
| Nc1nc2ccc(Oc3ccccc3)cc2cc1C(CCc1cn(C23CC4CC(CC(C4)C2)C3)nn1)C1CCOCC1 (stereo not shown) [compound 155] |  | 2200 nM | 67% |  |
| CCOc1cc2nc(N)c(C(CCC(=O)NCCC(C)(C)C)C3CCOCC3)cc2cc1Oc1ccccc1 (stereo not shown) [compound 102] | 97% | 270 nM |  |  |
| CN(CCC[C@H](c1cc2cc(Oc3ccccc3)ccc2nc1N)C1CCOCC1)CC1CCCCC1 [compound 85] | 98% | 340 nM |  |  |
| CC(C)C(CO)NCCCC(c1cc2cc(Oc3ccccc3)ccc2nc1N)C1CCOCC1 (stereo not shown) [compound 96] | 83% | 1700 nM |  |  |
| CC(C)(C)CCNC(=O)CC[C@H](c1cc2cc(Oc3ccccc3)ccc2nc1N)C1CCOCC1 [compound 79] |  | 290 nM | 89% |  |
| CC(C)(C)c1cc(CC(c2cc3cc(Oc4ccccc4)ccc3nc2N)C2CCOCC2)on1 (stereo not shown) [compound 152] |  | 560 nM | 53% |  |
| CN(CC1CCCCC1)C(=O)CC[C@H](c1cc2cc(Oc3ccccc3)ccc2nc1N)C1CCOCC1 [compound 84] |  | 360 nM | 96% |  |
| COC(=O)C(COCc1ccccc1)NCCCC(c1cc2cc(Oc3ccccc3)ccc2nc1N)C1CCOCC1 (stereo not shown) [compound 95] | 95% | 120 nM |  |  |
| Cn1ccnc1CN(CCC(C)(C)C)C(=O)CC[C@H](c1cc2cc(Oc3ccccc3)ccc2nc1N)C1CCOCC1 [compound 86] |  | 220 nM | 100% |  |
| Nc1nc2ccc(Oc3ccccc3)cc2cc1CCC(=O)NC1C2CC3CC(C2)CC1C3 (stereo not shown) [compound 2] |  |  |  | inhibition at 0.3 µM (β-secretase (BACE) [1]; 0.3 μM compound): 45%; inhibition at 1 µM (β-secretase (BACE) [1]; 1 μM compound): 78%; inhibition at 3 µM (β-secretase (BACE) [1]; 3 μM compound): 107%; Ki (β-secretase (BACE) [2]): 230 nM |
| COc1cc2nc(N)c(C(CCC(=O)N(CCN3CCOCC3)C3CCCCC3)C3CCOCC3)cc2cc1Oc1ccccc1 (stereo not shown) [compound 107] | 89% | 360 nM |  |  |
